Results taken from paper PMC11189555, “Aryl amino acetamides prevent Plasmodium falciparum ring development via targeting the lipid-transfer protein PfSTART1” (Nature Communications, 2024).
Where two headings read alike, the source gives them in different places.

Assays:
[1] = system: 3D7 P. falciparum parasites; experiment: Growth inhibition assay (72 h, LDH activity); format: cell-based, Plasmodium falciparum; conditions: for inhibition / EC50: Plasmodium falciparum; for inhibition: 3D7, 3D7, read-out: NORMALISED (growth inhibition, LDH absorbance)
Procedure: Parasite growth assays with inhibitory compounds were performed as per[11] and are fully described in the Supplementary Information. […]
Growth inhibition assays. Synchronised ring-stage parasites (0.3-0.6% parasitemia, 2% haematocrit) were grown for 72 h in a serial-dilution of the compound under […]
and compound 4. Note that M-833 was first purchased from MolPort (MolPort -002-267-916) then made in-house at WEHI: the differences observed in EC50s across experiments are attributed to the different batches of M -833. For some experiments, 0, 0.25 or 2.5 mM of glucosamine (GlcN) was also added. Experiments were set up in technical duplicates or triplicates. Following a freeze -thaw cycle, lactate dehydrogenase (LDH) activity was assessed as an indicator of parasite growt h 5. 30 μL of parasite culture was incubated for 30 min in the dark with 75 μL Malstat mixture (0.1 M Tris pH 9.0, 20 g/L lactic acid, pH 7.5, 0.2% Triton-X100, 0.5 g/L acetylpyridine adenine dinucleotide (APAD, Sigma), 200 μg/mL nitroblue tetrazolium (NBT; Sigma), 1 μg/mL phenozine ethosulfate (PES; Sigma)). Absorbance was then measured at 650 nm, transformed using the formula below, plotted against the logarithm of the concentrations, and a non-linear regression (log(inhibitor) vs. response, variable slope) was calculated using GraphPad Prism to assess the half-inhibitory […]
Growth inhibition % = (1 − average(sample)− average(uRBC)) ∗ 100 […]
The DMSO samples were also used to assess growth of parasite in the presence of 0.25 and 2.5 mM GlcN (normalised by DMSO in 0 mM GlcN). […]

[2] = molecular target: T1, recombinant PfSTART1(WT) (I149-V394) (Plasmodium falciparum, UniProt Q8I298); experiment: Isothermal titration calorimetry; format: binding; conditions: for Differential Power DP_Y / ΔH NDH_Y: PfSTART(WT), ITC replicate data
T1 construct: START domain alone (I149-V394 from PF3D7_0104200); 8xHis tag (N); TEV protease cleavage site (N); made in house; host or cells: Sf21 insect cells (baculovirus)
Excerpt: Codon optimised (Spodoptera frugiperda, Sf) START domain alone (I149-V394 from PF3D7_0104200) was synthesised by Integrated DNA Technologies and cloned into a modified baculovirus transfer vector (pAcGP67-A) with a N-terminal GP67-signal sequence, 8xHis tag, and TEV protease cleavage site. Recombinant baculovirus was generated via the flashBACTM Baculovirus Expression System using Sf21 cells (Life Technologies), amplified to reach a third passage viral stock, and 1.5% used to infect Sf21 for protein expression. After incubation for three days at 28 °C, media containing secreted protein was harvested by centrifugation and supplemented with 50 mM Tris pH 7.5, 20 mM MgCl2, 100 mM NaCl, and 10-20 mM imidazole. The supplemented protein sample was purified by nickel affinity chromatography (HisTrap Excel 5 mL, Cytiva), and eluted with 20 mM Tris pH 7.5, 500 mM NaCl, 300-500 mM imidazole. Eluted fractions were further purified using size-exclusion chromatography (Superdex S75 16/600 or Superdex 10/300, Cytiva) with the column pre-equilibrated with 20 mM HEPES pH 7.5, 150 mM NaCl, and peak-containing fractions concentrated and stored at -80 °C until required. If required, prior to ITC, a second size-exclusion chromatography step was performed to remove soluble aggregates.
ITC experiments were performed on a MicroCal PEAQ-ITC calorimeter at 25 °C, with a stirring speed of 750 rpm and a reference power of 5 μcal/sec. 500 μM M-833 series inhibitor solutions were diluted to 10 μM in 50 mM NaPO4^-3 (pH 7.4), 150 mM NaCl with a final DMSO concentration of 2% (v/v) (cell sample). PfSTART1 protein was dialysed extensively against 50 mM NaPO4^-3 (pH 7.4), 150 mM NaCl, before diluting to 90 μM in the same buffer with 2% (v/v) DMSO (syringe sample). The first injection was 0.4 μL over a 0.8 s duration, and the remaining 19 injections were 2 μL of 4 s duration, with 150 s injection spacing. Data were collected and analysed using the PEAQ-ITC software (MicroCal) and fit by a single site binding model. A fitted offset (constant control heat) was also applied to the integrated heat.

T1 sequence (Q8I298 entry or part of it): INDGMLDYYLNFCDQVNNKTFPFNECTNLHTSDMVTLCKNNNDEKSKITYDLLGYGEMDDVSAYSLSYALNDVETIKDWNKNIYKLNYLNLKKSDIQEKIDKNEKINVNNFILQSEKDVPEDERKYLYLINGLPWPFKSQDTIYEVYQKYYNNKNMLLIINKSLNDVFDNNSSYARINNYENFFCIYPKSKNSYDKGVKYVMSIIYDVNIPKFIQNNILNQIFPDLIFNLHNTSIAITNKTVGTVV

CC(C)(Nc1ccc(Cl)c(S(=O)(=O)N2CCOCC2)c1)C(=O)Nc1ccc(F)c(Cl)c1 [W-991]
(av-uRBC) / (DMSO-uRBC) x100 ([1]; 3D7, conc. 18.5185 nM, Biological replicate 2 (2021-11-03)): 10.8954
(av-uRBC) / (DMSO-uRBC) x100 ([1]; 3D7, conc. 18.5185 nM, Biological replicate 3 (2021-11-11)): 6.2108
(av-uRBC) / (DMSO-uRBC) x100 ([1]; 3D7, conc. 55.5556 nM, Biological replicate 1 (2021-10-25)): 9.035
(av-uRBC) / (DMSO-uRBC) x100 ([1]; 3D7, conc. 55.5556 nM, Biological replicate 2 (2021-11-03)): 11.005
(av-uRBC) / (DMSO-uRBC) x100 ([1]; 3D7, conc. 55.5556 nM, Biological replicate 3 (2021-11-11)): 5.108
(av-uRBC) / (DMSO-uRBC) x100 ([1]; 3D7, conc. 166.667 nM, Biological replicate 1 (2021-10-25)): 9.2782
(av-uRBC) / (DMSO-uRBC) x100 ([1]; 3D7, conc. 166.667 nM, Biological replicate 2 (2021-11-03)): 9.854
(av-uRBC) / (DMSO-uRBC) x100 ([1]; 3D7, conc. 166.667 nM, Biological replicate 3 (2021-11-11)): 4.764
(av-uRBC) / (DMSO-uRBC) x100 ([1]; 3D7, conc. 500 nM, Biological replicate 1 (2021-10-25)): 10.7733
(av-uRBC) / (DMSO-uRBC) x100 ([1]; 3D7, conc. 500 nM, Biological replicate 2 (2021-11-03)): 10.7389
(av-uRBC) / (DMSO-uRBC) x100 ([1]; 3D7, conc. 500 nM, Biological replicate 3 (2021-11-11)): 3.985
improvement in parasite activity on replacing the aryl oxy of compound 3 with an amino group ([1]; EC50 based): 20 fold
inhibition ([1]; 0.25 mM GlcN, dilution point 1 of 10, starting concentration 100 nM): 94.1%
inhibition ([1]; 0.25 mM GlcN, dilution point 2 of 10 from starting concentration 100 nM): 94.3%
inhibition ([1]; 0.25 mM GlcN, dilution point 3 of 10 from starting concentration 100 nM): 95.3%
inhibition ([1]; 0.25 mM GlcN, dilution point 4 of 10 from starting concentration 100 nM): 91.5%
inhibition ([1]; 2.5 mM GlcN, dilution point 1 of 10, starting concentration 100 nM): 89.4%
inhibition ([1]; 2.5 mM GlcN, dilution point 2 of 10 from starting concentration 100 nM): 91.3%
inhibition ([1]; 2.5 mM GlcN, dilution point 3 of 10 from starting concentration 100 nM): 88.4%
inhibition ([1]; 2.5 mM GlcN, dilution point 4 of 10 from starting concentration 100 nM): 86.4%
inhibition ([1]; 2.5 mM GlcN, dilution point 5 of 10 from starting concentration 100 nM): 65.7%
inhibition ([1]; 2.5 mM GlcN, dilution point 6 of 10 from starting concentration 100 nM): 40.2%
EC50 ([1]; 3D7, 72 h, Supplementary Table 1, 3D7, 72 h, read-out: EC50): 720 pM
EC50 ([1]; 3D7, Fig 4C, 3D7, 0 mM GlcN, n = 3, read-out: EC50 W-991 (95% confidence interval)): 942 pM
EC50 ([1]; 3D7, Fig 4C, 3D7, 0.25 mM GlcN, n = 3, read-out: EC50 W-991 (95% confidence interval)): 908 pM
EC50 ([1]; 3D7, Fig 4C, 3D7, 2.5 mM GlcN, n = 3, read-out: EC50 W-991 (95% confidence interval)): 787 pM
EC50 ([1]; 3D7, text on structure activity relationship (Fig 4A), read-out: EC50, antiparasitic activity): 7000 pM
effect of GlcN addition on EC50 ([1]; control 3D7, Fig 4C): did not change the EC50
Kd ([2]; ITC, 25 °C, 90 µM PfSTART1 titrated into 10 µM compound, n = 2, ± SD): 10000 ± 7000 pM
ΔH ([2]; ITC, 25 °C, n = 2, ± SD): -12.8 ± 0.1 kcal/mol
−TΔS ([2]; ITC, 25 °C, n = 2, ± SD): 1.8 ± 0.6 kcal/mol
Differential Power DP_Y ([2]; DP_X 0.083333): -0.000146
Differential Power DP_Y ([2]; DP_X 0.1): 9.8e-5
ΔH NDH_Y ([2]; NDH_X 0.104703): -13.8427
ΔH NDH_Y ([2]; NDH_X 0.192876): -12.6755
